Assay results: US8932581B2, “Calcium-mediated effects of coral and methods of use thereof” (Ben Gurion University of the Negev Research and Development …, priority 2007, dated 2015)

Tested on: mesenchymal stem cells (MSCs)
Experiment: Scanning Electron Micrographs of MSC density on coral biomatrices with and without calcium chelator
Assay type: cell-based, Mus-musculus
Settings: incubation with the calcium chelator; FIGS. 2Aj, 2Al
Experimental: Two biomaterial derivatives were prepared, one from the hydrocoral M. dichotoma (designated MIL) and the other, for purposes of comparison, from scleractinian coral P. lutea—(designated POR). Colonies of M. dichotoma were collected from the shallow seawater zones adjacent to the Interuniversity Institute of Marine Science (IUD in Eilat, Israel, at depths of 6-8 meters. Each colony was cut into fragments and glued with epoxy resin into the tops of PVC tubes. After an adjustment period of 3 months, cloned fragments were transferred to a laboratory tank system. POR were prepared from cores drilled out from long-lived massive colonies.
Both types of skeleton were cut into blocks and bleached using a commercial hypochloride solution. After this preliminary cleaning process, samples were rinsed with distilled water and air-dried. […]
Images were acquired using an Axiovert-200 (Zeiss, Germany) inverted microscope equipped with X20 Plan-Neofluar (N.A. 0.50) and X40 LD-Acrhoplan objectives (N.A. 0.60) and a cooled CCD camera (SensiCam, PCO, USA) controlled by Metamorph (version 6.2, Universal Imaging, Downingtown, Pa.). […] Cells were counted manually, and the numbers were averaged and interpolated for 1 mm^2 of crystalline surface.

## O=C(O)CN(CCOCCOCCN(CC(=O)O)CC(=O)O)CC(=O)O [EGTA, O,O′-bis(2-aminoethyl)ethyleneglycol tetraacetic acid]
  local cell density on coral seeded with MSCs, effect of calcium chelator: further increased local cell density
